According to patent publication US8716558B2, “Method of altering glycosylation of proteins in response to nojirimycin glucuronide in a plant cell expressing glucuronidase” (Marker Gene Technologies, Inc., priority 1999, dated 2014):

What was measured:
Assay type in all cases: in vivo
[1] = tested on: Arabidopsis thaliana Landsberg erecta wild type (WT); assay: Plant growth on MS media containing conjugates, wild type
Excerpt: (§1) Arabidopsis thaliana Landsberg erecta is a wild type (WT) strain derived from the Landsberg ecotype. Arabidopsis thaliana Landsberg erecta strain DW150-307 (DW) is a transgenic strain produced using the method of Blazquez et al., 1997, Development 124:3835-3844. The transgenic DW strain is homozygous for the LFY::GUS insertion and thus contains GUS under control of the full length LFY promoter that expresses E. coli β-glucuronidase. Expression of GUS in this strain is developmentally regulated, showing the highest levels 9 days after germination (at the onset of meristem floral initiation under a long-day, 16 h. light regime), but having basal levels in vegetative apices throughout secondary growth. Accordingly, GUS expression leads to production of the E. coli β-glucuronidase enzyme in floral and to a lesser extent in shoot meristem tissues of the plant. Isogenic homozygous plant strains were kindly provided by Dr. Detlef Weigel, Department of Biology, The Salk Institute, San Diego, Calif.
(§2) Wild type (WT) and recombinant (DW) plants were grown in MS media containing 0-100 ug/mL of conjugates M0630, M0632, or M0792 (prepared as set forth herein). All plants were grown at 23° C. in long-day (16 hours light/8 hours dark) cycles, under a mixture of Cool White and Gro-Lux/WS fluorescent lights (Osram, Sylvania) and sterile conditions.

[2] = tested on: GUS-positive potato (May queen) plants; assay: Negative selection of potato transformants; conditions: M0627 3.5 mg/L, M0630 10 mg/L, M0632 10 mg·L, M0792 5 mg/L; MS media, soil or daily spray
Protocol: Potato (May queen) pieces with sprouts are planted in a mixture of vermiculite and compost (1:1). After two weeks, the apical meristem culture of the grown sprouts is removed to obtain the sterile seedling plants. Sterile plants are then placed in MS liquid medium containing 2% sucrose, pH 5.7 (80 ml) and incubated with rotation at 25° C. in a well-lighted place to induce rooting. After two weeks, the rooted plants are transferred into MS liquid medium for microtuber induction (MS medium, 8% sucrose, pH 5.7, 40 ml medium in 100 ml Erlenmeyer flask) in the dark for 28 days. The microtubers are then cut into pieces (2 mm) and transferred into agar medium for regeneration (MS medium, 2% sucrose, 1 mg/l zeatin, 0.1 mg/l IAA, 1% agar). The pieces of the microtuber pre-cultured for two days are then immersed in an Agrobacterium tumefaciens strain LBA4404 suspension containing the binary plasmid pBI121 (Clontech, Palo Alto, Calif.) for transformation. The plasmid pBI121 carries the neomycin phosphotransferase (NPTII) gene and β-glucuronidase (GUS) gene. In this vector, the neomycin phosphotransferase (NPTII) gene is under the control of the nopaline synthase (nos) promoter and the terminator from nopaline synthase (nos) which provides polyadenylation signal. The neomycin phosphotransferase (NPTII) gene confers kanamycin resistance. The β-glucuronidase (GUS) activity is under the control of the cauliflower mosaic virus ^35S promoter, providing constitutive expression in all tissues, and the terminator from nopaline synthase (nos) provides polyadenylation. Agrobacterium tumefaciens was grown overnight at 28° C. in liquid YEP medium (Sambrook J., Fritsch E. F., Maniatis T., Molecular Cloning: a laboratory manual. 2nd ed., Cold Spring Harbor, N.Y., 1989) supplemented with 25 mg/l rifampicin, 50 mg/l streptomycin, and 50 mg/l kanamycin. An overnight culture is diluted with liquid TE medium to 4×10^8 cells/ml for transformation. A filter paper is placed on the agar medium, over the microtuber pieces and the co-culture is continued for 48 hours. The transfected microtubers are then washed 4-5 times in sterile distilled water to decrease the concentration of Agrobacterium tumefaciens and with a cefotaxime (250 mg/l) solution for 20 min, and then again with sterile distilled water (4-5 times). The microtubers are then transferred into an agar screening medium (MS medium, 2% sucrose, 1 mg/l zeatin, 1 mg/l IAA, 1% agar, 50 mg/l kanamycin, 500 mg/l Claforan, 1% agar). After about two months growth, the divided shoots are transferred into a rooting induction medium and then into a microtuber induction medium. The obtained GUS-positive plants are used for the analysis.

[3] = tested on: wild-type potato plants; assay: Negative selection of potato, wild type; conditions: M0627 3.5 mg/L, M0630 10 mg/L, M0632 10 mg·L, M0792 5 mg/L; MS media, soil or daily spray
[4] = tested on: GUS-positive tomato (minitomato) plants; assay: Negative selection of tomato transformants; conditions: M0627 3.5 mg/L, M0630 10 mg/L, M0632 10 mg·L, M0792 5 mg/L; MS media, soil or daily spray
Protocol: Tomato (cultivar, minitomato) seeds are surface-sterilized with 70% ethanol (30 seconds) and 2% sodium hypochlorite (15 minutes), and then placed on a plant hormone-free MS agar medium. The seeds are cultured at […] 23° C. in long-day (16 hours light/8 hours dark) cycles, under a mixture of Cool White and Gro-Lux/WS fluorescent lights (Osram, Sylvania) and sterile conditions. The cotyledons are taken from the obtained sterile seedlings and then placed on an MS agar medium containing 2 mg/l of Zeatin and 0.1 mg/l of IAA (regeneration medium) in 9 cm Petri dishes, and cultured under the same conditions as those described above for 2 days.
Agrobacterium tumefaciens strain LBA4404 suspension containing the binary plasmid pBI121 (Clontech, Palo Alto, Calif.) is used for transformation. The plasmid pBI121 carries the neomycin phosphotransferase (NPTII) gene and β-glucuronidase (GUS) gene. In this vector, the neomycin phosphotransferase (NPTII) gene is under the control of the nopaline synthase (nos) promoter and the terminator from nopaline synthase (nos) which provides polyadenylation signal. The neomycin phosphotransferase (NPTII) gene confers kanamycin resistance. The β-glucuronidase (GUS) activity is under the control of the cauliflower mosaic virus ^35S promoter, providing constitutive expression in all tissues, and the terminator from nopaline synthase (nos) provides polyadenylation. Agrobacterium tumefaciens is grown overnight at 28° C. in liquid YEP medium (Sambrook J., Fritsch E. F., Maniatis T., Molecular Cloning: a laboratory manual. 2nd ed., Cold Spring Harbor, N.Y., 1989) supplemented with 25 mg/l rifampicin, 50 mg/l streptomycin, and 50 mg/l kanamycin. An overnight culture is diluted with liquid TE medium to 4×10^8 cells/ml for transformation.
The cotyledons cultured for two days are collected in a sterilized Petri dish, and the Agrobacterium suspension is added to them to cause infection. Superfluous Agrobacterium suspension is removed from the cotyledons by using a sterilized filter paper. After further removing excess Agrobacterium suspension, a sterilized filter paper is placed on the medium in the Petri dish in order to prevent rapid propagation of Agrobacterium. The infected cotyledons are placed on this media and co-cultured for 24 hours.
The transfected cotyledons are then transferred into an agar screening medium (MS medium, 2% sucrose, 1 mg/l zeatin, 1 mg/l IAA, 1% agar, 50 mg/l kanamycin, 500 mg/l claforan, 1% agar) to select the GUS transformant plants. The regenerated shoots are then transferred into a new selecting medium to conduct further selection.

[5] = tested on: wild-type tomato plants; assay: Negative selection of tomato, wild type; conditions: M0627 3.5 mg/L, M0630 10 mg/L, M0632 10 mg·L, M0792 5 mg/L; MS media, soil or daily spray
[6] = tested on: Arabidopsis thaliana Landsberg erecta strain DW150-307 (DW); assay: Plant growth on MS media containing conjugates, LFY::GUS recombinant; conditions: for floral tissue response of DW plants upon inflorescence / vegetative growth of DW plants: MS media containing conjugate
Excerpt: as §1, §2

[7] = tested on: Arabidopsis thaliana Landsberg erecta strain DW150-307; assay: Growth and glycoprotein glycosylation in GUS-containing plants; conditions: for carbohydrate patterns of glycoproteins compared with control seeds: ANTS and 1,5-EDANS labeling, HPLC and PAGE; for decrease in number of inflorescence stems (average) / plant growth: M0809 22 mg/L or M0872 25 mg/L in MS agar medium
Protocol: Arabidopsis thaliana Landsberg erecta strain DW150-307 plants were propagated from seeds. Seeds were surface-sterilized with 70% ethanol (30 seconds) and 2% sodium hypochlorite (15 minutes), and then placed on a plant hormone-free MS agar medium. After incubation at 4° C. for 2 days, the seeds were cultured at 25° C. for one week while the daylight hours were kept to be 16 hours. The cotyledons were taken from the obtained sterile seedlings and then placed on an MS agar medium containing either deoxynojirimycin b-D-glucuronide methyl ester (M0809) (22 mg/L) or deoxymannonojirimycin b-D-glucuronidetriacetate, methyl ester (M0872) (25 mg/L) (regeneration medium in 9 cm Petri dish), and cultured under the same conditions as those described above for 6 days. Plants were transplanted into fresh media containing the same concentrations of M0809 or M0872 as above, and growth continued for an additional 19 days, until full seed pods were obtained. Plants grew normally on media containing the M0809 or M0872, except that the number of inflorescence stems was decreased (an average of 50%) in the treated plant specimens. Seed pods, floral and stem tissues from these plants were harvested, and seeds dried briefly in vacuo (10 mm Hg, 1 hour). Seeds were crushed, and carbohydrate content of all tissues analyzed using the ANTS and 1,5-EDANS labeling systems, followed by HPLC analysis and PAGE electrophoretic analysis.

[8] = 100 ug/mL in MS media (highest concentration)
[9] = lower concentrations in MS media

Compound	growth of wild type plants [1, 8]	growth of wild type plants [1, 9]	effect on GUS-positive plants [2]	effect on wild-type plants [3]	effect on GUS-positive plants [4]	effect on wild-type plants [5]	floral tissue response of DW plants upon inflorescence [6]	vegetative growth of DW plants [6]	growth phenotype of DW150-307 plants ([6]; 1 ug/mL for 32 days)	germination and survival of DW plants ([6]; media application, above the lowest concentration)	carbohydrate patterns of glycoproteins compared with control seeds [7]	decrease in number of inflorescence stems (average) [7] [%]	plant growth [7]
COC(=O)C1OC(Oc2ccc(=O)[nH]n2)C(OC(C)=O)C(OC(C)=O)C1OC(C)=O [Example M0627, Maleic Hydrazide Beta-D-Glucuronide Triacetate, Methyl Ester]	slightly slower	comparable growth to the blank controls	selective ablation	does not affect growth or morphology	selective ablation	does not affect growth or morphology	–	–	–	–	–	–	–
COC(=O)C1OC(Oc2c(Br)cc(C#N)cc2Br)C(OC(C)=O)C(OC(C)=O)C1OC(C)=O [Example M0630, bromoxynil-β-D-glucuronic acid methyl ester triacetate]	–	–	selective ablation	does not affect growth or morphology	selective ablation	does not affect growth or morphology	floral tissues became chlorotic (brown) and became dehydrated and ablated	normal vegetative growth until inflorescence initiation	–	–	–	–	–
COC(=O)C1OC(Oc2c(Br)cc(C#N)cc2Br)C(O)C(O)C1O [Example M0632, Bromoxynil-β-D-glucuronic acid methyl ester]	slightly slower	comparable growth to the blank controls	selective ablation	does not affect growth or morphology	selective ablation	does not affect growth or morphology	–	–	callus formation	either did not germinate or were ablated shortly after germination	–	–	–
COC(=O)C1OC(OC(CC2CC(=O)NC(=O)C2)C2CC(C)CC(C)C2=O)C(OC(C)=O)C(OC(C)=O)C1OC(C)=O [Example M0792, Cycloheximide-β-D-glucuronic acid methyl ester triacetate]	slightly slower	comparable growth to the blank controls	selective ablation	does not affect growth or morphology	selective ablation	does not affect growth or morphology	floral tissues became chlorotic (brown) and became dehydrated and ablated	normal vegetative growth until inflorescence initiation	–	–	–	–	–
COC(=O)C1OC(OCC2NCC(O)C(O)C2O)C(O)C(O)C1O [Example M0809, deoxynojirimycin b-D-glucuronide methyl ester]	–	–	–	–	–	–	–	–	–	–	modified in structure	50	grew normally
COC(=O)C1OC(OCC2NCC(O)C(O)C2O)C(OC(C)=O)C(OC(C)=O)C1OC(C)=O [Example M0872, deoxymannonojirimycin b-D-glucuronidetriacetate, methyl ester]	–	–	–	–	–	–	–	–	–	–	modified in structure	50	grew normally
